Results as given in paper PMC11840788, “3,3′-Diindolylmethane (DIM): A Molecular Scaffold for Inhibition of WWP1 and WWP2, Members of the NEDD4 Family HECT E3 Ligases” (ACS Omega, 2025).

Molecular target: T1, WWP2 (Homo sapiens, UniProt O00308)
T1 construct: made in house; host or cells: E. coli
Assay: STD NMR binding, WWP2
Details: 500 μM ligand, 20 μM protein
Description: Given the similarities between WWP1 and WWP2 HECT domains, we speculated that the relatively low sensitivity of DSF may not be able to detect weak WWP2-I3C interactions and therefore opted to investigate further using STD NMR. STD NMR is a versatile ligand-based NMR approach, relying on selective saturation of the protein. This saturation is transferred to the ligand when and if the ligand binds, causing a reduction of the signal intensities. The STD intensities are calculated as the difference of the reference spectra (where selective saturation is off) minus the irradiated spectra, and they are proportional to the vicinity of the protein surface. […]
An Amicon centrifuge filter unit with a 10 kDa MW cutoff was used to exchange the protein in 25 mM d19-2,2-bis(hydroxymethyl)-2,2′,2″-nitrilotriethanol, 100 mM NaCl and 1.0 mM DTT buffer pH* 8.9 (uncorrected for the deuterium isotope effect on the pH glass electrode) in D2O. […] All the NMR experiments were performed on a Bruker Avance 800.23 MHz at 278 K. Binding epitope mappings were obtained by determining the initial slopes (STD0) calculated by performing a least-squares fitting of the following monoexponential curve: [drawing 1] where STD(tsat) is the STD intensity for a saturation time, tsat, STDmax is the maximum STD intensity and ksat is the rate constant for saturation transfer. […]

T1 sequence (O00308 whole entry): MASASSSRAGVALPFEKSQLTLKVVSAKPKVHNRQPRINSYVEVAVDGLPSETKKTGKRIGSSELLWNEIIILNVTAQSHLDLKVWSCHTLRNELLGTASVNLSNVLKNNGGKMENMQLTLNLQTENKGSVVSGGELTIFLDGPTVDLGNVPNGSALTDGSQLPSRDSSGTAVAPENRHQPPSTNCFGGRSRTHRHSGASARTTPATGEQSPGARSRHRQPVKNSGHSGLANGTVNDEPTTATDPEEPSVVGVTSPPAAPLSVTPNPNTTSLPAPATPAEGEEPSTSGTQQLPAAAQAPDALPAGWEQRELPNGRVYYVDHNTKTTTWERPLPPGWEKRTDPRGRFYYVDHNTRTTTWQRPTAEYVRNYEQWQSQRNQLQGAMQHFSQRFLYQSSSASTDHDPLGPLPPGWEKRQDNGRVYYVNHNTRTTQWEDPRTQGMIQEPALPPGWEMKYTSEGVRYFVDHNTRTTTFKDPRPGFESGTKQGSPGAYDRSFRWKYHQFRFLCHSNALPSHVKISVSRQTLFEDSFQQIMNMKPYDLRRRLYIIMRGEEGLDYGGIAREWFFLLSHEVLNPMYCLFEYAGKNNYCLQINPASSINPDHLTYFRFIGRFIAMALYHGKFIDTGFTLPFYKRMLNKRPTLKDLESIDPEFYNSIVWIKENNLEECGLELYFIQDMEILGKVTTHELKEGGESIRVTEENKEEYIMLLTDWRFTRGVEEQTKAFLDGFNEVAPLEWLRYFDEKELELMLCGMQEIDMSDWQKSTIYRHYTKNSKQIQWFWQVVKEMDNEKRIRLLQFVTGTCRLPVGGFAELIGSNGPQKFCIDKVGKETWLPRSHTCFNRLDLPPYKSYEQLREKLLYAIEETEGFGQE

OCc1c[nH]c2ccccc12 [Compound I3C, Indole-3-carbinol, reference compound]
STD intensities, WWP2-I3C complex (in words, compared with WWP1): much lower
